For this assay, the system named is P388 leukemia ip, CD2F1 mice, survival T/C. The assay can be described thus: NCI In Vivo Anticancer Drug Screen. Data for tumor model P388 Leukemia (intraperitoneal) in CD2F1 (CDF1) mice. To be noted: endpoint: median survival time, higher = longer survival. On the procedure:
The antitumor activity of compounds was measured in mice bearing transplantable tumors. Survival or tumor size were measured and the results are expressed as the measurement made in the treated group (T) divided by the measurement made in the vehicle treated control group (C). The tumor model used in this assay is P388 Leukemia (intraperitoneal) in CD2F1 (CDF1) mice

Setting [1] is: dose: 50.0 mg/kg/injection, schedule: Q04DX003 (ip), vehicle: saline with Tween-80.
[2] abbreviates: dose: 200.0 mg/kg/injection, schedule: Q04DX003 (ip), vehicle: saline with Tween-80.
Where [3] appears, read: dose: 100.0 mg/kg/injection, schedule: Q04DX003 (ip), vehicle: saline with Tween-80.
Setting [4] is: dose: 100.0 mg/kg/injection, schedule: Q01DX009 (ip), vehicle: saline.
Where [5] appears, read: dose: 200.0 mg/kg/injection, schedule: Q01DX009 (ip), vehicle: saline.
Setting [6] is: dose: 50.0 mg/kg/injection, schedule: Q01DX005 (ip), vehicle: saline with Tween-80.
The mark [7] stands for this setting: dose: 100.0 mg/kg/injection, schedule: Q01DX005 (ip), vehicle: saline with Tween-80.
[8] abbreviates: dose: 200.0 mg/kg/injection, schedule: Q01DX005 (ip), vehicle: saline with Tween-80.
The mark [9] stands for this setting: dose: 50.0 mg/kg/injection, schedule: Q01DX009 (ip), vehicle: saline with Tween-80.
Setting [10] is: dose: 100.0 mg/kg/injection, schedule: Q01DX009 (ip), vehicle: saline with Tween-80.
Setting [11] is: dose: 200.0 mg/kg/injection, schedule: Q01DX009 (ip), vehicle: saline with Tween-80.
The mark [12] stands for this setting: dose: 25.0 mg/kg/injection, schedule: Q04DX003 (ip), vehicle: saline with Tween-80.
[13] abbreviates: dose: 25.0 mg/kg/injection, schedule: Q01DX009 (ip), vehicle: saline with Tween-80.
Setting [14] is: dose: 60.0 mg/kg/injection, schedule: Q01DX005 (ip), vehicle: saline with Tween-80.
[15] abbreviates: dose: 120.0 mg/kg/injection, schedule: Q01DX005 (ip), vehicle: saline with Tween-80.
Where [16] appears, read: dose: 240.0 mg/kg/injection, schedule: Q01DX005 (ip), vehicle: saline with Tween-80.

“And” between values parts separate entries of the source, which are not always exact repeats. Equal values may be shown once. Inconclusive results and toxic doses are left out.

Consider `O=[N+]([O-])c1cccc(N2CN(c3ccccc3)NC(c3ccccc3)=N2)c1`, for which the T/C under setting [1] is 90 % of control and the T/C under setting [2] is 107 % of control.
Regarding `CC(CN=C(CC(=O)c1ccc(Br)cc1)c1ccccc1)N=C(CC(=O)c1ccc(Br)cc1)c1ccccc1` (stereo not given), the T/C is 90 % of control under setting [3]; 87 % of control under setting [2]; 87 % of control (dose: 400.0 mg/kg/injection, schedule: Q04DX003 (ip), vehicle: saline with Tween-80).
Turning to `CN(C)c1ccc(C(=N)Cc2ccc3ccccc3n2)cc1`, the T/C runs as follows: (dose: 37.5 mg/kg/injection, schedule: Q01DX009 (ip), vehicle: Klucel (hydroxypropylcellulose) (HPC)) 106 % of control; (dose: 50.0 mg/kg/injection, schedule: Q01DX009 (ip), vehicle: Klucel (hydroxypropylcellulose) (HPC)) 92 % of control; (dose: 75.0 mg/kg/injection, schedule: Q01DX009 (ip), vehicle: Klucel (hydroxypropylcellulose) (HPC)) 98 % of control; (dose: 100.0 mg/kg/injection, schedule: Q01DX009 (ip), vehicle: Klucel (hydroxypropylcellulose) (HPC)) 95 % of control; (dose: 150.0 mg/kg/injection, schedule: Q01DX009 (ip), vehicle: Klucel (hydroxypropylcellulose) (HPC)) 109 % of control; (dose: 200.0 mg/kg/injection, schedule: Q01DX009 (ip), vehicle: Klucel (hydroxypropylcellulose) (HPC)) 100 % of control.
For the compound `COP(=O)(O)OC.[V]`, the T/C was 96 % of control under setting [1]; 103 % of control and 108 % of control under setting [3]; 99 % of control under setting [2].
Regarding `Cc1ccccc1N(C=O)c1ccccc1C`, the T/C was 106 % of control under setting [4]; 93 % of control under setting [5]; 98 % of control (dose: 400.0 mg/kg/injection, schedule: Q01DX009 (ip), vehicle: saline).
In the case of `C[Si](C)(C)[Si](C)(C)C`, the T/C (dose: 50.0 mg/kg/injection, schedule: Q01DX009 (ip), vehicle: saline) was 98 % of control; the T/C under setting [4] is 111 % of control; the T/C under setting [5] was 102 % of control.
For the compound `COC1OC(C)(C(OC)OC)CCC1C` (stereo not given), the T/C is, setting by setting: under setting [6], 99 % of control; under setting [7], 94 % of control; under setting [8], 92 % of control.
Consider `COC1CC(OC2CCC3(C)C(=CCC4C3C(OC(C)=O)C(OC(=O)CC(C)C)C3(C)C(C(C)=O)CCC43O)C2)OC(C)C1OC1CC(OC)C(OC2CC(OC)C(OC3OC(C)C(O)C(OC)C3O)C(C)O2)C(C)O1` (stereo not given), for which the T/C was 87 % of control (dose: 4.13 mg/kg/injection, schedule: Q01DX005 (ip), vehicle: Klucel (hydroxypropylcellulose) (HPC)) and 101 % of control (dose: 8.25 mg/kg/injection, schedule: Q01DX005 (ip), vehicle: Klucel (hydroxypropylcellulose) (HPC)).
Turning to `CCCCCCC(=O)/C=C/c1ccccc1OC(=O)c1ccc([N+](=O)[O-])cc1`, the T/C is 98 % of control under setting [9], 99 % of control under setting [10] and 96 % of control under setting [11].
Take `O=C(NN(Cn1c(=S)sc2ccccc21)Cn1c(=S)sc2ccccc21)c1ccncc1`: the T/C was 105 % of control and 98 % of control (dose: 3.12 mg/kg/injection, schedule: Q01DX009 (ip), vehicle: Klucel (hydroxypropylcellulose) (HPC)); 93 % of control and 94 % of control (dose: 6.25 mg/kg/injection, schedule: Q01DX009 (ip), vehicle: Klucel (hydroxypropylcellulose) (HPC)); 88 % of control and 92 % of control (dose: 12.5 mg/kg/injection, schedule: Q01DX009 (ip), vehicle: Klucel (hydroxypropylcellulose) (HPC)).
In the case of `C[C@@H]1C[C@@]2(C)[C@@H](CC[C@@H]3[C@@H]2CC[C@@]2(C)[C@H]3CC[C@]2(C)O)CC1=O`, the T/C is 95 % of control (dose: 25.0 mg/kg/injection, schedule: Q01DX009 (ip), vehicle: saline sonified); 100 % of control under setting [12]; 86 % of control (dose: 50.0 mg/kg/injection, schedule: Q01DX009 (ip), vehicle: saline sonified); 100 % of control under setting [1]; 95 % of control (dose: 100.0 mg/kg/injection, schedule: Q01DX009 (ip), vehicle: saline sonified); 100 % of control under setting [3].
Regarding `O=C(O)C(=O)O.O=C([O-])C(=O)[O-].O=C([O-])C(=O)[O-].[NH-]CC[NH-].[NH-]CC[NH-].[NH-]CC[NH-].[Ru+4].[Ru+5]`, the T/C (dose: 25.0 mg/kg/injection, schedule: Q04DX003 (ip), vehicle: water) is 117 % of control and the T/C (dose: 50.0 mg/kg/injection, schedule: Q04DX003 (ip), vehicle: water) was 151 % of control.
`CC(=O)OCC1C(=O)OCC1C(=O)N1Cc2cc3ccccc3nc2C1` (stereo not given): the T/C (dose: 6.25 mg/kg/injection, schedule: Q01DX009 (ip), vehicle: saline with Tween-80) is 100 % of control; the T/C (dose: 8.0 mg/kg/injection, schedule: Q01DX009 (ip), vehicle: saline with Tween-80) was 104 % of control and 93 % of control and 97 % of control; the T/C (dose: 12.5 mg/kg/injection, schedule: Q01DX009 (ip), vehicle: saline with Tween-80) was 113 % of control; the T/C (dose: 16.0 mg/kg/injection, schedule: Q01DX009 (ip), vehicle: saline with Tween-80) was 105 % of control and 116 % of control and 98 % of control; the T/C under setting [13] was 105 % of control; the T/C (dose: 32.0 mg/kg/injection, schedule: Q01DX009 (ip), vehicle: saline with Tween-80) was 113 % of control and 116 % of control and 97 % of control. Also, the T/C is, setting by setting: under setting [9], 105 % of control; (dose: 64.0 mg/kg/injection, schedule: Q01DX009 (ip), vehicle: saline with Tween-80) 99 % of control and 105 % of control; (dose: 128.0 mg/kg/injection, schedule: Q01DX009 (ip), vehicle: saline with Tween-80) 100 % of control and 106 % of control and 108 % of control.
For `Cc1ccc2no[n+]([O-])c2c1[N+](=O)[O-]`, the T/C by setting is: under setting [6], 118 % of control and 119 % of control; under setting [7], 121 % of control; under setting [8], 150 % of control.
With `CCOc1ccc(/C=N/NC(=O)CC2CCCCC2)cc1OC`, the T/C under setting [14] was 90 % of control, the T/C under setting [15] is 87 % of control and the T/C under setting [16] is 95 % of control.
For the compound `c1ccc2c3c([nH]c2c1)CCCCC3`, the T/C under setting [13] is 96 % of control, the T/C under setting [9] was 109 % of control, the T/C under setting [10] was 106 % of control and the T/C under setting [11] is 118 % of control.
With `CC1CC(C)(C)N=C(C(C)C)O1` (stereo not given), the T/C under setting [12] was 109 % of control, the T/C under setting [1] is 100 % of control and the T/C under setting [3] is 100 % of control.
Regarding `CCCCCCC1CC1C(=O)NCCCCCN=C(N)N` (stereo not given), the T/C was 100 % of control (dose: 7.5 mg/kg/injection, schedule: Q01DX009 (ip), vehicle: Klucel (hydroxypropylcellulose) (HPC)); 100 % of control (dose: 15.0 mg/kg/injection, schedule: Q01DX009 (ip), vehicle: Klucel (hydroxypropylcellulose) (HPC)); 107 % of control (dose: 30.0 mg/kg/injection, schedule: Q01DX009 (ip), vehicle: Klucel (hydroxypropylcellulose) (HPC)).
As for `CC(C)(CO)NC(=O)c1ccccc1Br`, the T/C was 100 % of control under setting [9], 100 % of control under setting [10] and 99 % of control under setting [11].
With `NC(=S)NN=C1/C(=N\O)CCC/C1=N/O`, the T/C under setting [14] was 97 % of control, the T/C under setting [15] was 97 % of control and the T/C under setting [16] is 97 % of control.

(Values after PubChem BioAssay AID330 (DTP/NCI, 2004).)
